Converted amounts (≈) assume the structure as drawn.
Tests used:
[1] = Aqueous solubility in four aqueous buffers with distinct pH values; type: physicochemical; details: for solubility at 15 min / solubility at 1 h: thermodynamic from solid; for Solubility in aqueous solutions (in words): summary of the four buffers
Description: The solubility properties of the generated solid states were studied in four different aqueous buffers with distinct pH values. Approximately 250 mg of each sample was mixed with 2.5 ml solvent and stirred.

[2] = Hygroscopicity by Dynamic Vapor Sorption Analysis (DVS); type: physicochemical; details: for Reversibility of water uptake / weight increase / Humidity absorption (in words) / Weight increase (hygroscopicity) / Changes of the crystalline form associated with water uptake: DVS; for Humidity absorption (in words): 0 to 95% RH; for Weight increase (hygroscopicity): humidity 0 to 95% RH, maximum
Description: The hygroscopicity was determined by Dynamic Vapor Sorption Analysis (DVS). Approximately 200 mg of each solid state were weight on a sample plate and subjected to the apparatus. The humidity inside was varied in a range from 0 to 95% RH and the mass change (dm [%]) of the samples measured continuously.

HIV = details: preclinical; lasted for several weeks after cessation of treatment; cited from earlier work
HIV-1 replication = details: prevents export of viral RNA from nucleus to cytoplasm in infected cells; cited from earlier work
normal cellular splicing = details: cited from earlier work
[3] = phase I trials; dose levels up to 200 mg; without clinically significant abnormal results; cited from earlier work
[4] = aqueous buffer, fassif, FaSSiF (SIF-powder), 15 min
[5] = aqueous buffer, fassif, FaSSiF (SIF-powder), 1 h
[6] = aqueous buffer, pH 2.2, simulated gastric fluid, 0.01N HCl pH ~2.2, 15 min
[7] = aqueous buffer, pH 2.2, simulated gastric fluid, 0.01N HCl pH ~2.2, 1 h
[8] = aqueous buffer, pH 4.5, aqueous buffer, 20 mM Na-acetate pH 4.5, 15 min
[9] = aqueous buffer, pH 4.5, aqueous buffer, 20 mM Na-acetate pH 4.5, 1 h
[10] = aqueous buffer, pH 6.8, aqueous buffer, 50 mM KH2PO4 pH 6.8, 15 min
[11] = aqueous buffer, pH 6.8, aqueous buffer, 50 mM KH2PO4 pH 6.8, 1 h

Row | Compound | Solubility in aqueous solutions (in words) [1] | Reversibility of water uptake / weight increase [2] | Humidity absorption (in words) [2] | Weight increase (hygroscopicity) [2] | Relative weight change (dm) ([2]; RH 40% (start)) [%] | Relative weight change (dm) ([2]; RH 40 → 0% (first step to 0)) [%] | Relative weight change (dm) ([2]; RH 95 → 40% (desorption)) [%] | Relative weight change (dm) ([2]; RH → 0% (second step to 0)) [%] | Relative weight change (dm) ([2]; RH → 35% (final step)) [%] | Relative weight change (dm) ([2]; RH → 75%) [%] | Relative weight change (dm) ([2]; RH → 95%) [%] | solubility at 15 min [1, 4] [µg/mL] | solubility at 1 h [1, 5] [µg/mL] | solubility at 15 min [1, 6] [µg/mL] | solubility at 1 h [1, 7] [µg/mL] | solubility at 15 min [1, 8] [µg/mL] | solubility at 1 h [1, 9] [µg/mL] | solubility at 15 min [1, 10] [µg/mL] | solubility at 1 h [1, 11] [µg/mL] | Changes of the crystalline form associated with water uptake [2] | also measured
1 | FC(F)(F)Oc1ccc(Nc2ccc3cccc(Cl)c3n2)cc1.O=S(=O)(O)O [H2SO4, (8-chloro-quinolin-2-yl)-(4-trifluoromethoxyphenyl)-amine] | first-rate solubility | reversible | low hygroscopicity | ≤ 3.2% | 0 | −0.11 | 0.03 | −0.14 | −0.04 | 0.32 | 3.2 | – | – | – | – | – | – | – | – | – | solubility at 15 min ([1]; aqueous buffer, 20 mM Na-acetate pH 4.5, 15 min): 93 µg/mL; solubility at 1 h ([1]; aqueous buffer, 20 mM Na-acetate pH 4.5, 1 h): 139 µg/mL; solubility at 15 min ([1]; aqueous buffer, 50 mM KH2PO4 pH 6.8, 15 min): 35 µg/mL; solubility at 1 h ([1]; aqueous buffer, 50 mM KH2PO4 pH 6.8, 1 h): 114 µg/mL; solubility at 15 min ([1]; simulated gastric fluid, 0.01N HCl pH ~2.2, 15 min): 89 µg/mL; solubility at 1 h ([1]; simulated gastric fluid, 0.01N HCl pH ~2.2, 1 h): 152 µg/mL; solubility at 15 min ([1]; FaSSiF (SIF-powder), 15 min): 109 µg/mL; solubility at 1 h ([1]; FaSSiF (SIF-powder), 1 h): 157 µg/mL
2 | Cl.FC(F)(F)Oc1ccc(Nc2ccc3cccc(Cl)c3n2)cc1 [HCl, (8-chloro-quinolin-2-yl)-(4-trifluoromethoxyphenyl)-amine] | first-rate solubility | irreversible | – | – | 0 | −0.11 | 7.8 | 2.8 | 5.1 | 1.7 | 14.3 | 111 | 198 | 116 | 147 | 74 | 136 | 68 | 104 | significant changes | –
3 | FC(F)(F)Oc1ccc(Nc2ccc3cccc(Cl)c3n2)cc1.O=S(=O)(O)c1ccccc1 [besylate, (8-chloro-quinolin-2-yl)-(4-trifluoromethoxyphenyl)-amine] | – | reversible | low hygroscopicity | up to 1.9% | 0 | −0.04 | 1.1 | −0.09 | 1.0 | 0.19 | 1.9 | 77 | 45 | 23 | 32 | 24 | 16 | 3 | 7 | only minor | –

The next lines start with results.

Row | Solubility in aqueous solutions (in words) [1] | Reversibility of water uptake / weight increase [2] | Humidity absorption (in words) [2] | Weight increase (hygroscopicity) [2] | Relative weight change (dm) ([2]; RH 40% (start)) [%] | Relative weight change (dm) ([2]; RH 40 → 0% (first step to 0)) [%] | Relative weight change (dm) ([2]; RH 95 → 40% (desorption)) [%] | Relative weight change (dm) ([2]; RH → 0% (second step to 0)) [%] | Relative weight change (dm) ([2]; RH → 35% (final step)) [%] | Relative weight change (dm) ([2]; RH → 75%) [%] | Relative weight change (dm) ([2]; RH → 95%) [%] | solubility at 15 min [1, 4] [µg/mL] | solubility at 1 h [1, 5] [µg/mL] | solubility at 15 min [1, 6] [µg/mL] | solubility at 1 h [1, 7] [µg/mL] | solubility at 15 min [1, 8] [µg/mL] | solubility at 1 h [1, 9] [µg/mL] | solubility at 15 min [1, 10] [µg/mL] | solubility at 1 h [1, 11] [µg/mL] | Changes of the crystalline form associated with water uptake [2] | Compound | also measured
4 | – | – | absorbs more or less not any humidity | – | 0 | 0 | 0.03 | 0.02 | 0.02 | 0.02 | 0.15 | 64 (≈ 189 µM) | 61 (≈ 180 µM) | – | – | – | – | – | – | – | FC(F)(F)Oc1ccc(Nc2ccc3cccc(Cl)c3n2)cc1 [free base, (8-chloro-quinolin-2-yl)-(4-trifluoromethoxy-phenyl)-amine] | Reduction of viral load (HIV): sustained reduction of viral load; HIV replication (HIV-1 replication): inhibits HIV replication; Solubility ([1]; 0.01N HCl pH ~2.2, 15 min): 3 µg/mL (≈ 8.86 µM); Solubility ([1]; 0.01N HCl pH ~2.2, 1 h): 4 µg/mL (≈ 11.8 µM); Solubility in aqueous solutions with different pH-values ([1]; compound from reworked WO 2010/143169 procedure, recrystallized, pH values simulating physiological conditions): virtual insolubility; Selectivity / effect on normal cellular splicing (normal cellular splicing): doesn't affect normal cellular splicing; Tolerability [3]: well tolerated
5 | – | irreversible | – | – | 0 | – | – | – | – | – | – | – | – | – | – | 48 (≈ 142 µM) | 50 (≈ 148 µM) | 18 (≈ 53.1 µM) | 23 (≈ 67.9 µM) | significant changes | FC(F)(F)Oc1ccc(Nc2ccc3cccc(Cl)c3n2)cc1 [hemi-edisylate, (8-chloro-quinolin-2-yl)-(4-trifluoromethoxyphenyl)-amine] | Solubility ([1]; 0.01N HCl pH ~2.2, 15 min): 75 µg/mL (≈ 221 µM); Solubility ([1]; 0.01N HCl pH ~2.2, 1 h): 65 µg/mL (≈ 192 µM); Relative weight change (dm) ([2]; RH 40 → 0% (first step to 0), listed as Hemiedisylate salt): −0.65%; Relative weight change (dm) ([2]; RH 95 → 40% (desorption), listed as Hemiedisylate salt): 3.5%; Relative weight change (dm) ([2]; RH → 0% (second step to 0), listed as Hemiedisylate salt): 0.4%; Relative weight change (dm) ([2]; RH → 35% (final step), listed as Hemiedisylate salt): 2.9%; Relative weight change (dm) ([2]; RH → 75%, listed as Hemiedisylate salt): 0.74%; Relative weight change (dm) ([2]; RH → 95%, listed as Hemiedisylate salt): 36.2%
6 | – | – | absorbs more or less not any humidity | – | 0 | −0.05 | −0.03 | −0.09 | −0.05 | 0.05 | 0.24 | 30 | 13 | 6 | 10 | – | 3 | – | – | – | Cc1ccc(S(=O)(=O)O)cc1.FC(F)(F)Oc1ccc(Nc2ccc3cccc(Cl)c3n2)cc1 [tosylate, (8-chloro-quinolin-2-yl)-(4-trifluoromethoxyphenyl)-amine] | –

From patent publication US10745357B2, “Process for preparing quinolin-2-yl-phenylamine derivatives and their salts” (priority 2016, dated 2020)
